From patent publication US12146185B2, “Genetic markers for enhancing efficacy of antipsychotic treatment with iloperidone” (Vanda Pharmaceuticals Inc., priority 2018, dated 2024)

System: schizophrenia patients
Test: Genome-wide association study of iloperidone efficacy (PANSS-T) in a randomized, double-blind, placebo- and ziprasidone-controlled 28-day study
Assay type: in vivo, human
Settings: for Genotype associated with lower treatment effect: PANSS-T
Description: A genome-wide association study (GWAS) is performed to improve understanding of the pharmacogenomic basis of response to iloperidone treatment of schizophrenia patients. In the GWAS, genotypes of 205 patients are utilized to evaluate treatment with iloperidone. Linear regression is used to directly test the association between single nucleotide polymorphisms (SNPs) and PANSS-T (day 28), correcting for essential covariates including principal components.
Patients 18-65 years of age with diagnoses of schizophrenia according to the Diagnostic and Statistical Manual of Mental Disorders, 4th Edition are eligible to participate in a randomized, double-blind, placebo- and ziprasidione-controlled, 28-day study of the efficacy and safety of iloperidone. Patients are randomly assigned to iloperidone 12 mg bid, ziprasidone 80 mg bid (active control), or placebo. The primary efficacy variable is change from baseline to the last scheduled observation in PANSS-T using the data from the short-term, double-blind phase. A secondary objective is to identify genetic markers predictive of response to iloperidone. Blood samples are collected, and DNA is extracted from patients who consented to the optional GWAS.
Three analyses of the PANSS-T are conducted: 1) A two-step approach where samples are randomly split into 2 groups of iloperidone-treated patients used to discover SNPs associated with change in PANSS-T (Discovery phase) and a second group to confirm the 100 most significant SNPs (Confirmatory phase). 2) A one-step approach using the Last Observation Carried Forward (LOCF) PANSS-T data of all iloperidone-treated patients. For each SNP, the most parsimonious genetic model (e.g., homozygous for one allele v. all other genotypes [i.e., AA v. AB and BB], heterozygous v. homozygous [i.e., AB v. AA and BB]) was established with respect to iloperidone efficacy using a one-way analysis of variance (ANOVA). 3) A Mixed-effects Model Repeated Measures (MMRM) analysis was subsequently conducted using the best genetic model of each SNP in the MMRM model. MMRM analyses were also conducted with the PANSS subscales PANSS-P, PANSS-N, and PANSS-GP.
The SNPs with a statistically significant association in all 3 analyses of PANSS-T, as well as the best of each analysis are considered significant findings and are listed below in Table 3.
A logistic regression is conducted based on binary cutoffs at PANSS-T≥30 and on the top ends of the distribution logistic model, splitting the data set into two groups: robust responders (i.e., responders having PANSS_T change≥30) and weak responders (i.e., responders having PANSS-T change<20). A significant GRM8 signal is observed in allelic tests conducted, that is, linear association is observed with PANSS-T day 28, logistic model with tot change>=30 vs weak (<20) and logistic association with high and low PANSS-T.

COc1cc(C(C)=O)ccc1OCCCN1CCC(c2noc3cc(F)ccc23)CC1 [iloperidone, 1-[4-[3-[4-(6-fluoro-1,2-benzisoxazol-3-yl)-1-piperidinyl]propoxy]-3-methoxyphenyl]ethanone]
Genotype associated with lower treatment effect (GRIP1 rs11176436): nonTT
Genotype associated with lower treatment effect (GRM8 rs2299503): nonAA
Genotype associated with lower treatment effect (GRM8 rs11763603): nonCC
Genotype associated with lower treatment effect (GRM8 rs13222700): nonTT
Genotype associated with lower treatment effect (NRXN3 rs17109739): nonCC
Genotype associated with lower treatment effect (NTRK2 rs7049108): nonGG
Genotype associated with lower treatment effect (SHANK2 rs579298): nonTT
iloperidone treatment effect as measured by PANSS-T by rs13222700 genotype (TT (homozygous minor allele) vs GT or GG, iloperidone 12 mg bid, PANSS-T day 28, FIG. 1): significantly higher treatment effect
iloperidone treatment effect as measured by PANSS-T change by rs13222700 genotype (TT vs GT or GG, iloperidone 12 mg bid, FIG. 3): significantly larger change in PANSS-T score
P of association of GRM8 variant rs13222700 with iloperidone efficacy (top locus of association analyses, chromosome 7): < 1×10^−5
